Source: patent US12492200B2, “NLRP3 modulators” (INNATE TUMOR IMMUNITY, INC., priority 2020, dated 2025)

The compounds below were run against T1, NLRP3 (Homo sapiens, UniProt Q96P20) (assay: Measurement of IL-1β production (NLRP3 hIL1β EC50), PMA-differentiated THP-1 cells). Details: human IL-1β production; assayed using one or more of the described procedures.
T1 construct: host or cells: PMA-differentiated THP-1 cells
Assay type: cell-based
Procedure: THP-1 cells were purchased from the American Type Culture Collection and sub-cultured according to instructions from the supplier. Prior to experiments, cells were cultured in RPMI 1640 containing 10% heat inactivated FBS, penicillin (100 units/ml) and streptomycin (100 μg/ml), and maintained in log phase prior to experimental setup. Prior to the experiment THIP-1 were treated with PMA (Phorbol 12-myristate 13-acetate) (10 μg/ml) for 24 hours. The day of the experiment the media was removed and attaching cells were treated with trypsin for 2 minutes, cells were then collected, washed with PBS (phosphate buffer saline), spin down, resuspended in 2% heat inactivated FBS with RPMI at a concentration of 1×10^6 cells/ml, and 100 μl was plated in a 96 well plate. Compounds were dissolved in dimethyl sulfoxide (DMSO) and added to the culture medium to achieve desired concentration (e.g. 100, 30, 10, 3, 1, 0.3 or 0.1 μM). Cells were incubated with compounds for 4 hours. Cell free supernatant was collected and the production of IL-1β was evaluated by ELISA. A vehicle only control was run concurrently with each experiment. Final DMSO concentration was 1%.
THP-1 cells were purchased from the American Type Culture Collection and sub-cultured according to instructions from the supplier. Prior to experiments, cells were cultured in RPMI 1640 containing 10% heat inactivated FBS, penicillin (100 units/ml), streptomycin (100 μg/ml), HEPES (10 mM) and sodium pyruvate (1 mM) and maintained in log phase prior to experimental setup. Prior to the experiment, THP-1 cells were treated with PMA (Phorbol 12-myristate 13-acetate) (20 μg/ml) overnight. The day of the experiment, the media was removed and attached cells were treated with trypsin for 2 minutes, cells were then collected, washed with PBS (phosphate buffer saline), pelleted by centrifugation and resuspended in 2% heat inactivated FBS with RPMI at a concentration of 50,000 cells/well in a 384 well plate. Cell free supernatant was collected and the production of IL-1β was evaluated by ELISA. Compounds were dissolved in dimethyl sulfoxide (DMSO) and added to the culture medium to achieve desired concentration (e.g. 100, 30, 10, 3, 1, 0.3 or 0.1 μM). Cells were incubated with compounds for 2 hours. A vehicle only control was run concurrently with each experiment. Final DMSO concentration was 1%.
Serial dilutions of compounds in DMSO were added to low volume 384 well plates at 100 nl/well using an ECHO 550 acoustic dispenser (Labcyte) to achieve final starting concentration of 10 μM in assay.
THP-1 cells in RPMI (Gibco, 11875) media with 10% FBS at a density of 1×10^6 cell/ml in a T175 flask were treated with a final concentration of phorbol 12-myristate 13-acetate (PMA) (Sigma,P1585) of 50 ng/ml overnight at 37° C. at 5% CO2 for differentiation. Cells were harvested the next day after rinsing well with dPBS using 0.5% trypsin. A cell solution was prepared of 1×10^6 cells/ml for 50,000 cells in 50 μl/well in RPMI media with 2% FBS. Cells were plated using a multichannel pipette onto the compound dilutions in Greiner, 384 well, black clear bottom tissue culture treated plates (781090). The plates were incubated in 37° C. incubator at 5% CO2 for 2 hours.
After the 2 hour incubation, the cell plates were spun in the centrifuge for 5 minutes at 1200 rpm. Using the Felix (CyBio), 8 μl of the supernatant was transferred to 384 well, low volume, white proxy plates. (Perkin Elmer, 6008230). A human IL1beta hTRF kit was used to analyze the supernatant (CISBIO, 62HIL1BPEG). The kit instructions were followed for preparing the IL1Beta standard curve and then the antibodies from the kit were diluted 1:40 rather than 1:20 as kit instructed. Once combined, the antibodies were added across the plates, 5 μl/well. The plates were sealed and incubated at 4° C. overnight. The plates were then read on the Perkin Elmer EnVision at 665/615 nm using the hTRF laser.

T1 sequence (Q96P20 whole entry): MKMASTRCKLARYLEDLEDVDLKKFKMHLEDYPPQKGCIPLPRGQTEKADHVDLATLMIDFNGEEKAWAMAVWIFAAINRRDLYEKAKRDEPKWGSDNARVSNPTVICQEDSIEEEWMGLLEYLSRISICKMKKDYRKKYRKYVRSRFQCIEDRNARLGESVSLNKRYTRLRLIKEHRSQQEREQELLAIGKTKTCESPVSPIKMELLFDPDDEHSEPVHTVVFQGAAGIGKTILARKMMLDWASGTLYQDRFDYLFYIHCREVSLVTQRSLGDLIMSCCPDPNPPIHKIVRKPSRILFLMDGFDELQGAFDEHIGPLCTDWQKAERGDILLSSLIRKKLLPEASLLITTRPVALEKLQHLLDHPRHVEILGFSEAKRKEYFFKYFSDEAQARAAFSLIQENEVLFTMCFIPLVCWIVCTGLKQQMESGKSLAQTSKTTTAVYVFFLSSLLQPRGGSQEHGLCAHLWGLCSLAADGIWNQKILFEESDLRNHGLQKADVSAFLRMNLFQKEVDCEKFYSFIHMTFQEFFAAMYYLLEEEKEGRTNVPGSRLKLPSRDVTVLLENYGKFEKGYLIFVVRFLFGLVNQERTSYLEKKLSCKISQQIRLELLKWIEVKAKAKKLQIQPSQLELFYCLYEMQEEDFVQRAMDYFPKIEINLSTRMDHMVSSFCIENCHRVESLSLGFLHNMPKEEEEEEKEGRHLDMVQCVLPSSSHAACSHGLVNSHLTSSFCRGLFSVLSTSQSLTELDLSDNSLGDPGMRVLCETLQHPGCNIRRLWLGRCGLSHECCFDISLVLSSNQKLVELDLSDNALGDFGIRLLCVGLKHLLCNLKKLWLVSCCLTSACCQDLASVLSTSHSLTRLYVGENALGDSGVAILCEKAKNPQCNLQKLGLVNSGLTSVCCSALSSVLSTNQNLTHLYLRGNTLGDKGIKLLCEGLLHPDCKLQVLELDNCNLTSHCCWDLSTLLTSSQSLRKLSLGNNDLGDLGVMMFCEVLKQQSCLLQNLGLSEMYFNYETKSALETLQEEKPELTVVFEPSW

Compound | EC50
CCn1c([C@H]2CCCN(C(=O)C3CC3(F)F)C2)nc2c(N)nc3cc(-c4cc[nH]n4)ccc3c21 (some centres unmarked) [Example 48] | 80 nM
C#CCC(=O)N1CCC[C@H](c2nc3c(N)nc4cc(-c5cc[nH]n5)ccc4c3n2CC)C1 [Example 49] | 620 nM
CCn1c([C@H]2CCCN(C(=O)Cc3ccccc3)C2)nc2c(N)nc3cc(-c4cc[nH]n4)ccc3c21 [Example 50] | 220 nM
CC(=O)N1CCC[C@H](c2nc3c(N)nc4cc(-c5cc[nH]n5)ccc4c3n2C(C)C)C1 [Example 51] | 930 nM
CC(C)n1c([C@H]2CCCN(C(=O)C3CCC3)C2)nc2c(N)nc3cc(-c4cc[nH]n4)ccc3c21 [Example 54] | 240 nM
CC(C)n1c([C@H]2CCCN(C(=O)C3(C#N)CC3)C2)nc2c(N)nc3cc(-c4cc[nH]n4)ccc3c21 [Example 55] | 230 nM
CC(C)n1c([C@H]2CCCN(C(=O)c3ccccc3)C2)nc2c(N)nc3cc(-c4cc[nH]n4)ccc3c21 [Example 56] | 300 nM
COCCC(=O)N1CCC[C@H](c2nc3c(N)nc4cc(-c5cc[nH]n5)ccc4c3n2C(C)C)C1 [Example 59] | 970 nM
CC(C)CC(=O)N1CCC[C@@H](c2nc3c(N)nc4cc(-c5cc[nH]n5)ccc4c3[nH]2)C1 [Example 66] | 3500 nM
N#CC1(C(=O)N2CCC[C@@H](c3nc4c(N)nc5cc(-c6cc[nH]n6)ccc5c4[nH]3)C2)CCC1 [Example 69] | 2000 nM
CC(C)C(=O)N1CC[C@H](c2nc3c(N)nc4cc(-c5cc[nH]n5)ccc4c3[nH]2)C1 [Example 72] | 3100 nM
Nc1nc2cc(-c3cc[nH]n3)ccc2c2[nH]c([C@H]3CCN(C(=O)CC(F)(F)F)C3)nc12 [Example 74] | 6800 nM
N#CC1(C(=O)N2CC[C@H](c3nc4c(N)nc5cc(-c6cc[nH]n6)ccc5c4[nH]3)C2)CC1 [Example 75] | 5000 nM
Nc1nc2cc(-c3cc[nH]n3)ccc2c2[nH]c([C@H]3CCN(C(=O)c4ccccc4)C3)nc12 [Example 76] | 5500 nM
CC(C)C(=O)N1CCC[C@@H]1Cc1nc2c(N)nc3cc(-c4cc[nH]n4)ccc3c2[nH]1 [Example 79] | 1600 nM
Nc1nc2cc(-c3cc[nH]n3)ccc2c2[nH]c(C[C@H]3CCCN3C(=O)C3(C(F)(F)F)CC3)nc12 [Example 81] | 4000 nM
N#CC1(C(=O)N2CCC[C@@H]2Cc2nc3c(N)nc4cc(-c5cc[nH]n5)ccc4c3[nH]2)CCC1 [Example 82] | 2600 nM
Nc1nc2cc(-c3cc[nH]n3)ccc2c2[nH]c(C[C@H]3CCCN3C(=O)c3ccccc3)nc12 [Example 84] | 2500 nM
CC(C)(C)C(=O)N1CCC[C@H]1Cc1nc2c(N)nc3cc(-c4cc[nH]n4)ccc3c2[nH]1 [Example 88] | 1900 nM
Nc1nc2cc(-c3cc[nH]n3)ccc2c2[nH]c(C[C@@H]3CCCN3C(=O)C3CCC3)nc12 [Example 89] | 2800 nM
Nc1nc2cc(-c3cc[nH]n3)ccc2c2[nH]c(C[C@@H]3CCCN3C(=O)C3CC3(F)F)nc12 (some centres unmarked) [Example 91] | 4100 nM
Nc1nc2cc(-c3cc[nH]n3)ccc2c2[nH]c(C[C@@H]3CCCN3C(=O)C3(C(F)(F)F)CC3)nc12 [Example 93] | 3200 nM
N#CC1(C(=O)N2CCC[C@H]2Cc2nc3c(N)nc4cc(-c5cc[nH]n5)ccc4c3[nH]2)CCC1 [Example 94] | 6200 nM
Nc1nc2cc(-c3cc[nH]n3)ccc2c2[nH]c(C[C@@H]3CCCN3C(=O)c3ccccc3)nc12 [Example 96] | 11000 nM
(S)-1-(2-((4-amino-7-(1H-pyrazol-3-yl)-1H-imidazo[4,5-c]quinolin-2-yl)methyl)pyrrolidin-1-yl)propane-1-one [Example 18] | 4900 nM
tert-Butyl 3-((4-amino-7-(1H-pyrazol-1-yl)-1H-imidazo[4,5-c]quinolin-2-yl)methyl)pyrrolidine-1-carboxylate [Example 23] | 2200 nM

Continued, values first:

EC50 | Compound
180 nM | CCn1c([C@H]2CCCN(C(=O)c3ccccc3)C2)nc2c(N)nc3cc(-c4cc[nH]n4)ccc3c21 [Example 46]
640 nM | CCn1c([C@H]2CCCN(C(=O)CCOC)C2)nc2c(N)nc3cc(-c4cc[nH]n4)ccc3c21 [Example 47]
380 nM | CCCC(=O)N1CCC[C@H](c2nc3c(N)nc4cc(-c5cc[nH]n5)ccc4c3n2C(C)C)C1 [Example 52]
230 nM | CC(C)CC(=O)N1CCC[C@H](c2nc3c(N)nc4cc(-c5cc[nH]n5)ccc4c3n2C(C)C)C1 [Example 53]
400 nM | CC(C)n1c([C@H]2CCCN(C(=O)Cc3ccccc3)C2)nc2c(N)nc3cc(-c4cc[nH]n4)ccc3c21 [Example 57]
330 nM | CC(C)n1c([C@H]2CCCN(C(=O)C3CC(F)(F)C3)C2)nc2c(N)nc3cc(-c4cc[nH]n4)ccc3c21 [Example 58]
4600 nM | CC(C)C(=O)N1CCC[C@@H](c2nc3c(N)nc4cc(-c5cc[nH]n5)ccc4c3[nH]2)C1 [Example 60]
2300 nM | CC(C)(C)C(=O)N1CCC[C@@H](c2nc3c(N)nc4cc(-c5cc[nH]n5)ccc4c3[nH]2)C1 [Example 61]
1200 nM | CCCC(=O)N1CCC[C@@H](c2nc3c(N)nc4cc(-c5cc[nH]n5)ccc4c3[nH]2)C1 [Example 62]
6600 nM | Nc1nc2cc(-c3cc[nH]n3)ccc2c2[nH]c([C@@H]3CCCN(C(=O)C4CC4(F)F)C3)nc12 (some centres unmarked) [Example 63]
9900 nM | COCC(=O)N1CCC[C@@H](c2nc3c(N)nc4cc(-c5cc[nH]n5)ccc4c3[nH]2)C1 [Example 64]
350 nM | C#CCC(=O)N1CCC[C@@H](c2nc3c(N)nc4cc(-c5cc[nH]n5)ccc4c3[nH]2)C1 [Example 65]
1800 nM | Nc1nc2cc(-c3cc[nH]n3)ccc2c2[nH]c([C@@H]3CCCN(C(=O)c4ccccc4)C3)nc12 [Example 67]
2300 nM | Nc1nc2cc(-c3cc[nH]n3)ccc2c2[nH]c([C@@H]3CCCN(C(=O)C4(C(F)(F)F)CC4)C3)nc12 [Example 68]
4900 nM | CC(=O)N1CC[C@H](c2nc3c(N)nc4cc(-c5cc[nH]n5)ccc4c3[nH]2)C1 [Example 71]
4100 nM | Nc1nc2cc(-c3cc[nH]n3)ccc2c2[nH]c([C@@H]3CCN(C(=O)c4ccccc4)C3)nc12 [Example 77]
5800 nM | CCCC(=O)N1CCC[C@@H]1Cc1nc2c(N)nc3cc(-c4cc[nH]n4)ccc3c2[nH]1 [Example 78]
6600 nM | COCC(=O)N1CCC[C@@H]1Cc1nc2c(N)nc3cc(-c4cc[nH]n4)ccc3c2[nH]1 [Example 80]
6600 nM | N#CC1(C(=O)N2CCC[C@@H]2Cc2nc3c(N)nc4cc(-c5cc[nH]n5)ccc4c3[nH]2)CCCC1 [Example 83]
5900 nM | Nc1nc2cc(-c3cc[nH]n3)ccc2c2[nH]c(C[C@H]3CCCN3C(=O)c3ccccn3)nc12 [Example 85]
6400 nM | CC(C)C(=O)N1CCC[C@H]1Cc1nc2c(N)nc3cc(-c4cc[nH]n4)ccc3c2[nH]1 [Example 86]
6000 nM | COCCC(=O)N1CCC[C@H]1Cc1nc2c(N)nc3cc(-c4cc[nH]n4)ccc3c2[nH]1 [Example 90]
9400 nM | N#CC1(C(=O)N2CCC[C@H]2Cc2nc3c(N)nc4cc(-c5cc[nH]n5)ccc4c3[nH]2)CC1 [Example 92]
6500 nM | N#CC1(C(=O)N2CCC[C@H]2Cc2nc3c(N)nc4cc(-c5cc[nH]n5)ccc4c3[nH]2)CCCC1 [Example 95]
